Like-named read-outs stand apart in the source and are kept apart here.
What was measured:
[1] = target: recombinant human Mcl-1 (residues 171-327) / Bim interaction (Homo sapiens (Human), UniProt Q07820); test: biochemical; format: binding; conditions: TR-FRET, Mcl-1(171-327) / biotin-Bim (51-76); read-out: Mcl-1 HTRF IC50
[2] = tested on: human multiple myeloma cell line, OPM-2; test: Cell viability assay (OPM-2 10 FBS), CellTiter-Glo; format: cell-based
Method in brief: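 Steps: plate cells at 3000/well in 10% FBS growth medium, add serially diluted compound, incubate 16 h at 37 °C with 5% CO2, add detection reagent and read luminescence after 25 min. A 4-parameter logistic model gives IC50.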

[3] = read-out: OPM-2 10% FBS IC50 IP, OPM-2 cells, 10% FBS, 16 h, CellTiter-Glo
[4] = Homo sapiens, OPM-2, 16 h, read-out: OPM-2 10% FBS IC50 IP, OPM-2 cells, 10% FBS, 16 h, CellTiter-Glo

Sequence of recombinant human Mcl-1 (residues 171-327) / Bim interaction (Q07820 171-327): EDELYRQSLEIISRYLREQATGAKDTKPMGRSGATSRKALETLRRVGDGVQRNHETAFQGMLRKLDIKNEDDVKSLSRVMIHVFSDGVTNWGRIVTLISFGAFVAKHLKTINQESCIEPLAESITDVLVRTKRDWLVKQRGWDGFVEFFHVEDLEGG

C[C@@H]1[C@@H](C)C/C=C/[C@@](O)(C#CCN2CCS(=O)(=O)CC2)[C@@H]2CC[C@H]2CN2C[C@@]3(CCCc4cc(Cl)ccc43)COc3ccc(cc32)C(=O)NS1(=O)=O [Example 100388, (1S,3′R,6′R,7′S,8′E,11′S,12′R)-6-chloro-7′-(3-(1,1-dioxido-4-thiomorpholinyl)-1-propyn-1-yl)-7′-hydroxy-11′,12′-dimethyl-3,4-dihydro-2H,15′H-spiro[naphthalene-1,22′-[20]oxa[13]thia[1,14]diazatetracyclo [14.7.2.0~3,6~.0~19,24~]pentacosa[8,16,18,24]tetraen]-15′-one 13′,13′-dioxide]
IC50 [1]: 1.17 nM | IC50 [2, 3]: 2160 nM

C[C@@H]1[C@@H](C)C/C=C/[C@@](O)(C#CCN2CCS(=O)(=O)CC2)[C@@H]2CC[C@H]2CN2C[C@@]3(CCCc4cc(Cl)ccc43)COc3ccc(cc32)C(=O)NS1(=O)=O [Example 100389, (1S,3′R,6′R,7′S,8′E,11′S,12′R)-6-chloro-7′-(3-(1,1-dioxido-4-thiomorpholinyl)-1-propyn-1-yl)-7′-hydroxy-11′,12′-dimethyl-3,4-dihydro-2H,15′H-spiro[naphthalene-1,22′-[20]oxa[13]thia[1,14]diazatetracyclo [14.7.2.0~3,6~.0~19,24~]pentacosa[8,16,18,24]tetraen]-15′-one 13′,13′-dioxide]
IC50 [1]: 0.101 nM | IC50 [2, 3]: 114 nM

CO[C@@]1(c2cccnc2)/C=C/C[C@H](C)[C@@H](C)S(=O)(=O)NC(=O)c2ccc3c(c2)N(C[C@@H]2CC[C@H]21)C[C@@]1(CCCc2cc(Cl)ccc21)CO3 [Example 100391, (1S,3′R,6′R,7′S,8′E,11′S,12′R)-6-chloro-7′-methoxy-11′,12′-dimethyl-7′-(3-pyridinyl)-3,4-dihydro-2H,15′H-spiro[naphthalene-1,22′-[20]oxa[13]thia[1,14]diazatetracyclo [14.7.2.0~3,6~.0~19,24~]pentacosa[8,16,18,24]tetraen]-15′-one 13′,13′-dioxide]
IC50 [1]: 0.441 nM | IC50 [2, 4]: 282 nM

CO[C@@]1(CCN(C)C)/C=C/C[C@H](C)[C@@H](C)S(=O)(=O)NC(=O)c2ccc3c(c2)N(C[C@@H]2CC[C@H]21)C[C@@]1(CCCc2cc(Cl)ccc21)CO3 [Example 100393, (1S,3′R,6′R,7′S,8′E,11′S,12′R)-6-chloro-7′-(2-(dimethylamino)ethyl)-7′-methoxy-11′,12′-dimethyl-3,4-dihydro-2H,15′H-spiro[naphthalene-1,22′-[20]oxa[13]thia[1,14]diazatetracyclo [14.7.2.0~3,6~.0~19,24~]pentacosa[8,16,18,24]tetraen]-15′-one 13′,13′-dioxide]
IC50 [1]: 0.164 nM | IC50 [2, 4]: 211 nM

C[C@@H]1[C@@H](C)C/C=C/[C@@](O)(C#CCO)[C@@H]2CC[C@H]2CN2C[C@@]3(CCCc4cc(Cl)ccc43)COc3ccc(cc32)C(=O)NS1(=O)=O [Example 100394, (1S,3′R,6′R,7′S,8′E,11′S,12′R)-6-chloro-7′-hydroxy-7′-(3-hydroxy-1-propyn-1-yl)-11′,12′-dimethyl-3,4-dihydro-2H,15′H-spiro[naphthalene-1,22′-[20]oxa[13]thia[1,14]diazatetracyclo [14.7.2.0~3,6~.0~19,24~]pentacosa[8,16,18,24]tetraen]-15′-one 13′,13′-dioxide]
IC50 [1]: 0.242 nM | IC50 [2, 3]: 622 nM

C[C@@H]1[C@@H](C)C/C=C/[C@@](O)(C#CCO)[C@@H]2CC[C@H]2CN2C[C@@]3(CCCc4cc(Cl)ccc43)COc3ccc(cc32)C(=O)NS1(=O)=O [Example 100395, (1S,3′R,6′R,7′S,8′E,11′S,12′R)-6-chloro-7′-hydroxy-7′-(3-hydroxy-1-propyn-1-yl)-11′,12′-dimethyl-3,4-dihydro-2H,15′H-spiro[naphthalene-1,22′-[20]oxa[13]thia[1,14]diazatetracyclo [14.7.2.0~3,6~.0~19,24~]pentacosa[8,16,18,24]tetraen]-15′-one 13′,13′-dioxide]
IC50 [1]: 0.056 nM | IC50 [2, 3]: 40 nM

Source: patent US10821115B2, “Compounds that inhibit Mcl-1 protein” (priority 2017, dated 2020)
